# Experimental data: patent US20020032918A1, “Alteration of growth and adaptation under hypoxic conditions” (priority 2000, published 2002)
# How the values were obtained:
# [1] = test system: seedlings of a submergence intolerant cultivar; conditions: elongation response inhibited by spraying; cited from earlier work
# [2] = test system: SH2A gene expression; experiment: Northern blot analysis of SH2A transcript abundance in isolated deepwater rice stem segments treated with hormone or inhibitor solutions; format: cell-based, Oryza sativa L.
# Method: Seeds of deepwater rice (Oryza sativa L., Pin Gaew 56) were obtained from the International Rice Research Institute (Los Baños, The Philippines). Plants were grown for 12 to 14 weeks as described (Sauter, 1997). All experiments were carried out under continuous light (200 μE/m^−2 s^−1) at 25° C. in a growth chamber. For submergence treatment, whole plants were placed in a 600 liter plastic barrel filled with tap water as described (Lorbiecke and Sauter, 1999). Control plants were kept in the same growth chamber. Analysis of hormone and inhibitor effects was performed using excised stem segments containing the upper highest growth responsive internode. (Raskin and Kende, 1984). Stem segments were incubated in 150 ml beakers with 25 ml aqueous solutions containing the indicated concentrations of gibberellin A3 (GA3) or the hormone precursor ethephon (2-chlorethanephosphoric acid, E) or water alone as a control. Control segments were incubated for 0.5 or 3 h in water. For ethephon treatment stem segments were preincubated for 0.5 h in water before adding ethephon for 2.5 h.
# To guarantee high humidity, the beakers were placed in plastic cylinders. Ethylene action was inhibited using 2,5-norbornadiene (bicyclo[2.2.1]hepta-2,5-diene, NBD) at a concentration of 50 μl/l in the gas phase as described (Lorbiecke and Sauter, 1999).
# To inhibit protein synthesis, stem sections were incubated with aqueous solutions of cycloheximide for 3 hours at the concentrations indicated.
# To determine submergence-dependent gene expression, mRNA abundance of SH2A and SH2B was analysed by RNA gel blot hybridization. RNA was isolated from different zones of the youngest internode and from adventitious roots of the third node from airgrown or partially submerged deepwater rice plants. Thus, tissue sections of the highest internode, 0-5 mm above the second node and containing the intercalary meristem; 5-15 mm above the second node containing the elongation zone; and 15-30 mm above the second node and containing the differentiation zone were used (Lorbiecke and Sauter, 1997). Adventitious roots of the third node were isolated as described (Lorbiecke and Sauter, 1999). The tissues were immediately frozen in liquid nitrogen and stored at −70° C. until RNA extraction. Total RNA was isolated with the TRIzol reagent (Gibco BRL) and precipitated with 4 M LiCl as described (Puissant and Houdebine, 1990, Lorbiecke and Sauter, 1999). RNA separation and Northern blot hybridization were carried out as described previously (Lorbiecke and Sauter, 1998). For RNA blot analysis, 20 μg of total RNA was separated by electrophoresis on a 1% (w/v) agarose gel containing 6% formaldehyde. The RNA was blotted to a nylon membrane (Hybond N+; Amersham, Braunschweig, Germany) according to Lorbiecke and Sauter (1998). For hybridization, gene-specific cDNA-fragments covering the 3′-regions of SH2A (nt 496-867) and SH2B (nt 513-980) were random prime labelled with 32P using the ‘Rediprime Labelling Kit’ (Amersham, Braunschweig, Germany). Hybridization was carried out overnight at 68° C. in 1% SDS, 1 M NaCl, 10% (w/v) dextran sulfate and heat-denatured salmon sperm DNA. The blots were washed once in 1× SSC (0.15 M NaCl, 15 mM Na-citrate, pH 7.0) at 68° C. and once in 1× SSC, 1% (w:v) SDS at 68° C. for 10 min each (Sauter, 1997).
# To analyse the hormone-dependent expression of the SH2A gene, isolated stem segments containing the youngest internode were treated with different hormone or inhibitor solutions for 2.5 hours. Total RNAs were isolated from the regions containing the intercalary meristem and the elongation zone and were analysed for SH2A transcript abundance (FIG. 8a).
# [3] = test system: endogenous ABA and GA1 levels in internodes; conditions: cited from earlier work
smiles,measurement,setting,value
CC(C)(C)[C@@H](O)[C@@H](Cc1ccc(Cl)cc1)n1cncn1 (racemic) [paclobutrazol],survival of seedlings,[1],greatly enhanced
"C=C1C[C@]23C[C@@]1(O)CC[C@H]2[C@@]12C=C[C@H](O)[C@@](C)(C(=O)O1)[C@H]2[C@@H]3C(=O)O [GA3, gibberellin A3]",SH2A transcript levels,"[2]; incubation with 50 μM GA3, after 2.5 h, compared with controls",did not result in increased SH2A transcript levels
C[C@@H]1C[C@@H]([C@H](O)CC2CC(=O)NC(=O)C2)C(=O)[C@@H](C)C1 [cycloheximide],induction of SH2A gene expression in the presence of the protein synthesis inhibitor,"[2]; 150 μM ethephon with cycloheximide, intercalary meristem",occurred
same,cycloheximide concentration required for SH2A gene induction,"[2]; dose response, 3 h, intercalary meristem",≥ 20 µg/mL
same,SH2A transcripts after treatment with CHX alone,"[2]; stem segments, 3 h, intercalary meristem",accumulation of SH2A transcripts
"O=P(O)(O)CCCl [ethephon, 2-chloroethanephosphoric acid]",SH2A mRNA levels between 2 and 6 hours,"[2]; 150 μM ethephon, meristem and elongation zone",declined to control levels
same,time of maximal SH2A mRNA abundance,"[2]; 150 μM ethephon, meristem and elongation zone, RNA at 1 hour intervals",2 h
same,lowest ethephon concentration inducing SH2A transcript accumulation,"[2]; 2.5 hours, 0.015-150 μM tested, intercalary meristem",1.5 µM
same,SH2A transcript levels,"[2]; stem segments treated with 150 μM ethephon, 2.5 h, intercalary meristem and elongation zone",strong increase
C=C [ethylene],increase of endogenous GA1 levels,[3]; at the same time (within three hours),four-fold
same,reduction of endogenous ABA levels in internodes,[3]; within three hours of application of ethylene,75%
"C1=CC2C=CC1C2 [norbornadiene, bicyclo[2.2.1]hepta-2,5-diene]",SH2A transcript levels,[2]; ethephon in combination with norbornadiene at 50 μl/l in the gas phase,reduced to control levels
